Experimental data: patent US9833002B2, “Biocide compositions” (Ecolab USA Inc., priority 2013, dated 2017)

What was measured:
[1] = system: biofilm (sessile organisms) on 1018 carbon steel biostuds; assay: Dynamic flow loop test, sessile kill study and biofilm regrowth; format: cell-based; details: within 24 hours
Method: (§1) Evaluation of the biocide compositions disclosed herein was performed through a dynamic flow loop test where both planktonic and sessile organisms could be monitored. To start this testing, fluid from the field, as well as cultured organisms from the field, were placed into the system and allowed to grow for approximately 7 weeks, providing a mature biofilm that can then be challenged by the biocide treatment.
(§2) The test system holds approximately 1.5 liters of fluid that are continually circulated over 1018 carbon steel biostuds located in the 6 o'clock position of a modified Robbin's device. The device holds a maximum of eight biostuds in the 6 o'clock position. The production fluid was pumped through the system at a rate of approximately 3.1 gallons per minute, which allows for deposition of microorganisms and solids onto the biostuds. The health of the microbial population was monitored weekly during the biofilm growth period using ATP quantification.
(§3) After concluding the establishment of a mature biofilm, the sessile kill study was initiated. […] A baseline reading was taken, during all of the studies, prior to the addition of the chemical to the individual flow loop. […]
The initial data point before treatment is set to 100% and all other readings are reported as a percent change compared to the baseline. […]

[2] = system: planktonic organisms; assay: Dynamic flow loop test, planktonic kill after 4 hour contact time; format: cell-based; details: 112.5 ppm active THPS
Method: as §1, §2, §3
Planktonic kill in the dynamic flow loops was also evaluated immediately after a 4 hour contact time with the biocide.

For “tetrakis(hydroxymethyl)phosphonium sulphate [THPS]”, the “Biofilm size after treatment compared to before treatment” value [1] was “larger than it was before treatment” and the “Planktonic kill, % reduction” value [2] was 81.8%.
